# Values quoted from earlier work as cited in patent US20240115695A1, “Method of Obtaining Betulin as an Adjuvant in a Vaccine Against Coronavirus SARS-COV-2” (BETUVAKS LIMITED LIABILITY COMPANY, priority 2020, published 2024).
# Assays:
# [1] = in vivo
Compound,solubility of betulin,LD50 [1],MPC [1]
C=C(C)[C@@H]1CC[C@]2(CO)CC[C@]3(C)[C@H](CC[C@@H]4[C@@]5(C)CC[C@H](O)C(C)(C)[C@@H]5CC[C@]43C)[C@@H]12 [betulin],less than 1 μg/mL,,
"C1CCOC1 [THF, tetrahydrofuran]",,2300 mg/kg,100 mg/m^3
